In ChEMBL document CHEMBL1138397, “New C25 carbamate rifamycin derivatives are resistant to inactivation by ADP-ribosyl transferases” (2007):
≈ marks a conversion by molar mass, not a printed value.

Assays:
[1] = tested on: Mycolicibacterium smegmatis; assay: Ratio of MIC for Arr-1 positive Mycobacterium smegmatis DSM 43756 to MIC for Arr-1 negative Mycobacterium smegmatis DSM 43756Kml; format: functional
Escherichia coli [2] = assay: Ratio of MIC for Arr-2 positive Escherichia coli CGSC 5163 lpxC101 mutant bearing pCTV104 to MIC for Arr-2 negative Escherichia coli CGSC 5163 lpxC101 mutant bearing pCTV104P; format: functional
Staphylococcus aureus [3] = assay: Antimicrobial activity against rifampin-sensitive Staphylococcus aureus ATCC 29213; format: functional
[4] = tested on: Mycolicibacterium smegmatis; assay: Antimicrobial activity against Arr-1 positive Mycobacterium smegmatis DSM 43756; format: functional
Escherichia coli [5] = assay: Antimicrobial activity against Arr-2 negative Escherichia coli CGSC 5163 lpxC101 mutant bearing pCTV104P; format: functional
Escherichia coli [6] = assay: Antimicrobial activity against Arr-2 positive Escherichia coli CGSC 5163 lpxC101 mutant bearing pCTV104; format: functional
Escherichia coli [7] = assay: Antimicrobial activity against Arr-2 positive Escherichia coli DH5-alpha bearing pCTF104; format: functional; details: DH5alpha
[8] = tested on: Mycolicibacterium smegmatis; assay: Antimicrobial activity against Arr-1 negative Mycobacterium smegmatis DSM 43756Kml; format: functional
Staphylococcus aureus [9] = assay: Antimicrobial activity against rifampin-resistant Staphylococcus aureus ATCC 29213 rpoB (His481Tyr) mutant; format: functional
Escherichia coli [10] = assay: Ratio of MIC for Arr-2 positive Escherichia coli DH5-alpha bearing pCTF104 to MIC for Arr-2 negative Escherichia coli DH5-alpha bearing pCTF104P; format: functional, DH5alpha
Escherichia coli [11] = assay: Antimicrobial activity against Arr-2 negative Escherichia coli DH5alpha bearing pCTF104P; format: functional

Row | SMILES | Ratio [1] | Ratio (Escherichia coli [2]) | MIC (Staphylococcus aureus [3]) [µg/mL] | MIC [4] [µg/mL] | MIC (Escherichia coli [5]) [µg/mL] | MIC (Escherichia coli [6]) [µg/mL] | MIC (Escherichia coli [7]) [µg/mL] | MIC [8] [µg/mL] | MIC (Staphylococcus aureus [9]) [µg/mL] | Ratio (Escherichia coli [10]) | MIC (Escherichia coli [11]) [µg/mL]
1 | CO[C@H]1/C=C/O[C@@]2(C)Oc3c(C)c(O)c4c(c3C2=O)C(=O)C(N2CCOCC2)=C(NC(=O)/C(C)=C\C=C\[C@H](C)[C@H](O)[C@@H](C)[C@@H](O)[C@@H](C)[C@H](OC(=O)N2CCC(NCc3ccccc3)CC2)[C@@H]1C)C4=O | 1 | 1 | 0.03 (≈ 0.0314 µM) | 0.12 (≈ 0.126 µM) | 0.24 (≈ 0.251 µM) | 0.24 (≈ 0.251 µM) | 16 (≈ 16.8 µM) | 0.12 (≈ 0.126 µM) | > 63 | 2 | 8 (≈ 8.38 µM)
2 | CO[C@H]1/C=C/O[C@@]2(C)Oc3c(C)c(O)c4c(c3C2=O)C(=O)C(N2CCOCC2)=C(NC(=O)/C(C)=C\C=C\[C@H](C)[C@H](O)[C@@H](C)[C@@H](O)[C@@H](C)[C@H](OC(=O)NCCO)[C@@H]1C)C4=O | 4 | 16 | 0.016 (≈ 0.0194 µM) | 8 (≈ 9.69 µM) | 0.5 (≈ 0.605 µM) | 8 (≈ 9.69 µM) | > 250 | 2 (≈ 2.42 µM) | 16 (≈ 19.4 µM) | >32 | 8 (≈ 9.69 µM)
3 | CO[C@H]1/C=C/O[C@@]2(C)Oc3c(C)c(O)c4c(c3C2=O)C(=O)C(N2CCOCC2)=C(NC(=O)/C(C)=C\C=C\[C@H](C)[C@H](O)[C@@H](C)[C@@H](O)[C@@H](C)[C@H](OC(=O)NCc2ccc(C(F)(F)F)cc2)[C@@H]1C)C4=O | >4 | 2 | 0.03 (≈ 0.0319 µM) | 0.12 (≈ 0.128 µM) | 0.5 (≈ 0.532 µM) | 1 (≈ 1.06 µM) | > 250 | ≤ 0.03 | – | – | > 250
4 | COc1ccccc1-c1cc(CNC(=O)O[C@H]2[C@H](C)[C@H](O)[C@H](C)[C@@H](O)[C@@H](C)/C=C/C=C(/C)C(=O)NC3=C(N4CCOCC4)C(=O)c4c(c(O)c(C)c5c4C(=O)[C@@](C)(O/C=C/[C@H](OC)[C@H]2C)O5)C3=O)on1 | 1 | 2 | 0.06 (≈ 0.0619 µM) | 0.12 (≈ 0.124 µM) | 1 (≈ 1.03 µM) | 2 (≈ 2.06 µM) | > 250 | 0.12 (≈ 0.124 µM) | – | – | > 250
5 | CNC(=O)O[C@H]1[C@H](C)[C@H](O)[C@H](C)[C@@H](O)[C@@H](C)/C=C/C=C(/C)C(=O)NC2=C(N3CCOCC3)C(=O)c3c(c(O)c(C)c4c3C(=O)[C@@](C)(O/C=C/[C@H](OC)[C@H]1C)O4)C2=O | 8 | 32 | 0.004 (≈ 0.00503 µM) | 4 (≈ 5.03 µM) | 0.5 (≈ 0.628 µM) | 16 (≈ 20.1 µM) | > 250 | 0.5 (≈ 0.628 µM) | 4 (≈ 5.03 µM) | >32 | 8 (≈ 10.1 µM)
6 | C=CCNC(=O)O[C@H]1[C@H](C)[C@H](O)[C@H](C)[C@@H](O)[C@@H](C)/C=C/C=C(/C)C(=O)NC2=C(N3CCOCC3)C(=O)c3c(c(O)c(C)c4c3C(=O)[C@@](C)(O/C=C/[C@H](OC)[C@H]1C)O4)C2=O | >32 | 16 | 0.004 (≈ 0.00487 µM) | 2 (≈ 2.43 µM) | 0.24 (≈ 0.292 µM) | 4 (≈ 4.87 µM) | > 250 | 0.06 (≈ 0.073 µM) | – | >32 | 8 (≈ 9.73 µM)
7 | CO[C@H]1/C=C/O[C@@]2(C)Oc3c(C)c(O)c4c(c3C2=O)C(=O)C(N2CCOCC2)=C(NC(=O)/C(C)=C\C=C\[C@H](C)[C@H](O)[C@@H](C)[C@@H](O)[C@@H](C)[C@H](OC(=O)NCc2ccc(N(C)C)cc2)[C@@H]1C)C4=O | 1 | 16 | 0.06 (≈ 0.0656 µM) | 0.06 (≈ 0.0656 µM) | 1 (≈ 1.09 µM) | 16 (≈ 17.5 µM) | > 250 | 0.06 (≈ 0.0656 µM) | > 63 | >4 | 63 (≈ 68.8 µM)
8 | COc1ccc(CNC(=O)O[C@H]2[C@H](C)[C@H](O)[C@H](C)[C@@H](O)[C@@H](C)/C=C/C=C(/C)C(=O)NC3=C(N4CCOCC4)C(=O)c4c(c(O)c(C)c5c4C(=O)[C@@](C)(O/C=C/[C@H](OC)[C@H]2C)O5)C3=O)cc1 | 2 | 1 | 0.016 (≈ 0.0177 µM) | 0.06 (≈ 0.0665 µM) | 0.5 (≈ 0.554 µM) | 0.5 (≈ 0.554 µM) | > 250 | 0.03 (≈ 0.0333 µM) | 4 (≈ 4.43 µM) | >16 | 16 (≈ 17.7 µM)
9 | CO[C@H]1/C=C/O[C@@]2(C)Oc3c(C)c(O)c4c(c3C2=O)C(=O)C(N2CCOCC2)=C(NC(=O)/C(C)=C\C=C\[C@H](C)[C@H](O)[C@@H](C)[C@@H](O)[C@@H](C)[C@H](OC(=O)NCCN(C)C)[C@@H]1C)C4=O | 4 | 1 | 0.006 (≈ 0.00703 µM) | 0.5 (≈ 0.586 µM) | 0.24 (≈ 0.281 µM) | 0.24 (≈ 0.281 µM) | 8 (≈ 9.38 µM) | 0.12 (≈ 0.141 µM) | > 63 | 2 | 4 (≈ 4.69 µM)
10 | CO[C@H]1/C=C/O[C@@]2(C)Oc3c(C)c(O)c4c(c3C2=O)C(=O)C(N2CCOCC2)=C(NC(=O)/C(C)=C\C=C\[C@H](C)[C@H](O)[C@@H](C)[C@@H](O)[C@@H](C)[C@H](OC(=O)N2CCOCC2)[C@@H]1C)C4=O | 2 | 1 | 0.03 (≈ 0.0352 µM) | 2 (≈ 2.35 µM) | 1 (≈ 1.17 µM) | 1 (≈ 1.17 µM) | 63 (≈ 73.9 µM) | 1 (≈ 1.17 µM) | – | 2 | 31 (≈ 36.4 µM)
11 | CO[C@H]1/C=C/O[C@@]2(C)Oc3c(C)c(O)c4c(c3C2=O)C(=O)C(N2CCOCC2)=C(NC(=O)/C(C)=C\C=C\[C@H](C)[C@H](O)[C@@H](C)[C@@H](O)[C@@H](C)[C@H](OC(=O)NCc2cc(-c3ccccn3)no2)[C@@H]1C)C4=O | 1 | – | 0.008 (≈ 0.00851 µM) | 0.5 (≈ 0.532 µM) | 2 (≈ 2.13 µM) | 2 (≈ 2.13 µM) | 4 (≈ 4.26 µM) | 0.5 (≈ 0.532 µM) | > 63 | 1 | 4 (≈ 4.26 µM)
12 | CO[C@H]1/C=C/O[C@@]2(C)Oc3c(C)c(O)c4c(c3C2=O)C(=O)C(N2CCOCC2)=C(NC(=O)/C(C)=C\C=C\[C@H](C)[C@H](O)[C@@H](C)[C@@H](O)[C@@H](C)[C@H](OC(=O)NCc2cccc(Cl)c2)[C@@H]1C)C4=O | >4 | 2 | 0.008 (≈ 0.00883 µM) | 0.12 (≈ 0.132 µM) | 0.24 (≈ 0.265 µM) | 0.5 (≈ 0.552 µM) | > 250 | ≤ 0.03 | > 63 | – | > 250
13 | CO[C@H]1/C=C/O[C@@]2(C)Oc3c(C)c(O)c4c(O)c(c(/C=N/N5CCN(C)CC5)c(O)c4c3C2=O)NC(=O)/C(C)=C\C=C\[C@H](C)[C@H](O)[C@@H](C)[C@@H](O)[C@@H](C)[C@H](OC(C)=O)[C@@H]1C [RIFAMPIN] | 64 | 32 | 0.008 (≈ 0.00972 µM) | 32 (≈ 38.9 µM) | 0.24 (≈ 0.292 µM) | 8 (≈ 9.72 µM) | > 250 | 0.5 (≈ 0.608 µM) | > 63 | >32 | 8 (≈ 9.72 µM)
